Measured values from PMC7961763, “Semi-Synthesis of Harringtonolide Derivatives and Their Antiproliferative Activity” (Molecules, 2021).
“Also recorded” adds a separate entry of the source. Like-named read-outs stand apart in the source and are kept apart here.

Assays:
[1] = tested on: HCT-116 (human colon cancer cell line); assay: MTT assay, cytotoxicity against HCT-116; format: cell-based; details: read-out: IC50 HCT-116
Method: (§1) All the synthesized derivatives of HO were tested for their antiproliferative activity against four human cancer cell lines, including the HCT-116, A375, A-549, and Huh-7 cell lines, using the MTT assay. Cisplatin was used as a positive control, while lead compound HO (1) was also included in the study for comparison.
(§2) HCT-116 (Human colon cancer cell line), A375 (human melanoma cancer cell line), A-549 (human lung adenocarcinoma cell line), Huh-7 (human hepatoma cancer cell line), and L-02 (normal hepatic cell line) were purchased from the Cell Bank of Shanghai Institute of Biochemistry and Cell Biology, Chinese Academy of Sciences (Shanghai, China). The cells were cultured in Dulbecco’s modified Eagle medium (DMEM; NY, USA), which were all supplemented with 10% fetal bovine serum (FBS; NY, USA) at 37 °C with 5% CO2.
(§3) The cytotoxic activity was evaluated using the MTT assay. Briefly, cells were seeded in 96-well plates at a density of 5 × 10^3 cells/well in 100 μL of DMEM medium at 37 °C for 24 h. Stock solutions of test compounds were prepared in DMSO at concentration of 50 mM, and twofold serial dilution with a culture medium was performed to obtain appropriate concentrations right before the assay. After that, the cells were incubated with synthetic derivatives or cisplatin as a positive control at the various concentrations (0.78125-50 μM) for 48 h. Then, 20 μL of 3-(4,5-Dimethylthiazol-2-yl)-2,5-diphenyltetrazolium bromide (MTT, Aladdin, Shanghai, China) solution (5 mg/mL in PBS) was added, and then the cells were incubated at 37 °C for an additional 4 h. The supernatant was removed, and 150 μL of dimethyl sulfoxide was added to dissolve the MTT formazan. The optical density (OD) was measured on a microplate reader (SpectraMax Plus 384, Molecular Devices, Sunnyvale, CA, USA) at a wavelength of 570 nm. The cytotoxic activity was expressed as the IC50 values. The above tests were repeated three times in parallel. Vehicle DMSO (0.1%) was used as a negative control.

[2] = tested on: A375 (human melanoma cancer cell line); assay: MTT assay, cytotoxicity against A375; format: cell-based; details: read-out: IC50 A375
Method: as §1, §2, §3

[3] = tested on: A-549 (human lung adenocarcinoma cell line); assay: MTT assay, cytotoxicity against A549; format: cell-based; details: read-out: IC50 A549
Method: as §1, §2, §3

[4] = tested on: Huh-7 (human hepatoma cancer cell line); assay: MTT assay, cytotoxicity against Huh-7; format: cell-based; details: read-out: IC50 Huh-7
Method: as §1, §2, §3

[5] = tested on: HCT-116, A375, A549, and Huh-7 cells; assay: MTT assay, statements for the whole panel of tested cancer cells; format: cell-based, human; details: for cytotoxic activities against four tested cancer cells (result in words): HCT-116, A375, A549, Huh-7, tested up to 50 μM; for cytotoxic activities against three other cancer cell lines (result in words): cell lines other than A549; for IC50: Homo sapiens, all tested cancer cells (HCT-116, A375, A549, Huh-7), read-out: IC50 against tested cells
Method: as §1, §2, §3

[6] = Homo sapiens, HCT-116, 48 h, MTT, 48 h, HCT-116 cells
[7] = Homo sapiens, A-375, 48 h, MTT, 48 h, A375 cells
[8] = Homo sapiens, A549, 48 h, MTT, 48 h, A549 cells
[9] = Homo sapiens, Huh-7, 48 h, MTT, 48 h, Huh-7 cells

Row | Compound | IC50 [1, 6] [µM] | IC50 [2, 7] [µM] | IC50 [3, 8] [µM] | IC50 [4, 9] [µM] | cytotoxic activities against four tested cancer cells (result in words) [5] | other results
1 | N.N.[Cl][Pt][Cl] [Cisplatin, reference compound] | – | – | – | – | – | IC50 ([1]; MTT, 48 h, HCT-116 cells): 4.48 ± 0.18 µM; IC50 ([2]; MTT, 48 h, A375 cells): 4.04 ± 0.23 µM; IC50 ([3]; MTT, 48 h, A549 cells): 8.53 ± 0.98 µM; IC50 ([4]; MTT, 48 h, Huh-7 cells): 15.04 ± 0.15 µM
2 | Cc1cc(=O)c(N)c2c3c1C1OC4C5OC(=O)C(CC2)(C4C)C3C15 [Compound 2, (3R,4aR,10aS,11S)-8-amino-5,11-dimethyl-2a,3,4a,9,10,10a1-hexahydro-1H-2,4-dioxa-3,10a-methanocyclohepta[bc]cyclopenta[jk]acenaphthylene-1,7(2a1H)-dione] | > 50 | > 50 | > 50 | > 50 | losing of cytotoxic activities | –
3 | CC(=O)Nc1c2c3c(c(C)cc1=O)C1OC4C5OC(=O)C(CC2)(C4C)C3C15 [Compound 3, N-((3R,4aR,10aS,11S)-5,11-dimethyl-1,7-dioxo-2a,2a1,3,4a,7,9,10,10a1-octahydro-1H-2,4-dioxa-3,10a-methanocyclohepta[bc]cyclopenta[jk]acenaphthylen-8-yl) acetamide] | > 50 | > 50 | > 50 | > 50 | losing of cytotoxic activities | –
4 | Cc1cc(=O)cc2c3c1C1OC4C5OC(O)C(CC2)(C4C)C3C15 [Compound 4, (1R,3R,4aR,10aS,11S)-1-hydroxy-5,11-dimethyl-2a,3,4a,9,10,10a1-hexahydro-1H-2,4-dioxa-3,10a-methanocyclohepta[bc]cyclopenta[jk]acenaphthylen-7(2a1H)-one] | > 50 | > 50 | > 50 | > 50 | losing of cytotoxic activities | –
5 | CC(=O)OC1OC2C3OC4c5c(C)cc(=O)cc6c5C(C42)C1(CC6)C3C [Compound 5, (1S,3R,4aR,10aS,11S)-5,11-dimethyl-7-oxo-2a,2a1,3,4a,7,9,10,10a1-octahydro-1H-2,4-dioxa-3,10a-methanocyclohepta[bc]cyclopenta[jk]acenaphthylen-1-yl acetate] | > 50 | > 50 | > 50 | > 50 | losing of cytotoxic activities | –
6 | Cc1ccc2c3c1C1OC4C5OC(=O)C(CC2=O)(C4C)C3C15 [Compound 7, (3R,4aR,9aS,10S)-5,10-dimethyl-2a,2a1,4a,9a1-tetrahydro-1H,3H-2,4-dioxa-3,9a-methanopentaleno [4,3,2,1-cdef]phenanthrene-1,8(9H)-dione] | > 50 | > 50 | > 50 | > 50 | inactive; also recorded: losing of cytotoxic activities | –
7 | Cc1cc(=O)cc2c3c1C1OC4C5OC(=O)C(CC2Br)(C4C)C3C15 [Compound 8, (3R,4aR,9R,10aS,11S)-9-bromo-5,11-dimethyl-2a,3,4a,9,10,10a1-hexahydro-1H-2,4-dioxa-3,10a-methanocyclohepta[bc]cyclopenta[jk]acenaphthylene-1,7(2a1H)-dione] | 2.19 ± 0.23 | 3.4 ± 0.22 | 43.4 ± 1.08 | 30.8 ± 0.6 | – | –
8 | COc1c2c3c(c(C)cc1=O)C1OC4C5OC(=O)C(CC2)(C4C)C3C15 [Compound 9, (3R,4aR,10aS,11S)-8-methoxy-5,11-dimethyl-2a,3,4a,9,10,10a1-hexahydro-1H-2,4-dioxa-3,10a-methanocyclohepta[bc]cyclopenta[jk]acenaphthylene-1,7(2a1H)-dione] | – | – | – | – | inactive; also recorded: losing of cytotoxic activities | IC50 ([1]; Homo sapiens, HCT-116, 48 h): > 50 µM; IC50 ([2]; Homo sapiens, A-375, 48 h): > 50 µM; IC50 ([3]; Homo sapiens, A549, 48 h): > 50 µM; IC50 ([4]; Homo sapiens, Huh-7, 48 h): > 50 µM
9 | CC(=O)OC1CC23C(=O)OC4C(OC5c6c(C)cc(=O)cc1c6C2C54)C3C [Compound 11a, (3R,4aR,9S,10aS,11S)-5,11-dimethyl-1,7-dioxo-2a,2a1,3,4a,7,9,10,10a1-octahydro-1H-2,4-dioxa-3,10a-methanocyclohepta[bc]cyclopenta[jk]acenaphthylen-9-yl acetate] | 5.95 ± 0.45 | 30.1 ± 1.58 | 27.5 ± 0.89 | > 50 | – | cytotoxic activities against three other cancer cell lines (result in words) [5]: weak cytotoxic activities
10 | Cc1cc(=O)cc2c3c1C1OC4C5OC(=O)C(CC2OC(=O)CCC(=O)O)(C4C)C3C15 [Compound 11b, 4-(((3R,4aR,9S,10aS,11S)-5,11-dimethyl-1,7-dioxo-2a,2a1,3,4a,7,9,10,10a1-octahydro-1H-2,4-dioxa-3,10a-methanocyclohepta[bc]cyclopenta[jk]acenaphthylen-9-yl)oxy)-4-oxobutanoic acid] | > 50 | > 50 | > 50 | > 50 | – | IC50 [5]: > 50 µM
11 | Cc1cc(=O)cc2c3c1C1OC4C5OC(=O)C(CC2OC(=O)c2ccco2)(C4C)C3C15 (centres unmarked) [Compound 11c] | 11 ± 0.34 | 16.4 ± 1.92 | 23.2 ± 0.67 | > 50 | – | cytotoxic activities against three other cancer cell lines (result in words) [5]: weak cytotoxic activities
12 | Cc1cc(=O)cc2c3c1C1OC4C5OC(=O)C(CC2OC(=O)c2ccccc2)(C4C)C3C15 [Compound 11d, (3R,4aR,9S,10aS,11S)-5,11-dimethyl-1,7-dioxo-2a,2a1,3,4a,7,9,10,10a1-octahydro-1H-2,4-dioxa-3,10a-methanocyclohepta[bc]cyclopenta[jk]acenaphthylen-9-yl benzoate] | > 50 | > 50 | > 50 | > 50 | – | IC50 [5]: > 50 µM
13 | Cc1cc(=O)cc2c3c1C1OC4C5OC(=O)C(CC2OC(=O)c2ccccn2)(C4C)C3C15 [Compound 11e, (3R,4aR,9S,10aS,11S)-5,11-dimethyl-1,7-dioxo-2a,2a1,3,4a,7,9,10,10a1-octahydro-1H-2,4-dioxa-3,10a-methanocyclohepta[bc]cyclopenta[jk]acenaphthylen-9-yl picolinate] | 5.47 ± 0.27 | 7.08 ± 0.42 | 18 ± 4.18 | > 50 | – | cytotoxic activities against three other cancer cell lines (result in words) [5]: weak cytotoxic activities
14 | Cc1cc(=O)cc2c3c1C1OC4C5OC(=O)C(CC2OC(=O)c2nc(C)c(C)nc2C)(C4C)C3C15 [Compound 11f, (3R,4aR,9S,10aS,11S)-5,11-dimethyl-1,7-dioxo-2a,2a1,3,4a,7,9,10,10a1-octahydro-1H-2,4-dioxa-3,10a-methanocyclohepta[bc]cyclopenta[jk]acenaphthylen-9-yl 3,5,6-trimethylpyrazine-2-carboxylate] | 10.8 ± 0.42 | 18.6 ± 2.23 | 25.9 ± 0.68 | > 50 | – | cytotoxic activities against three other cancer cell lines (result in words) [5]: weak cytotoxic activities
15 | Cc1cc(=O)cc2c3c1C1OC4C5OC(=O)C(CC2O)(C4C)C3C15 [Compound 12, (3R,4aR,9R,10aS,11S)-9-hydroxy-5,11-dimethyl-2a,3,4a,9,10,10a1-hexahydro-1H-2,4-dioxa-3,10a-methanocyclohepta[bc]cyclopenta[jk]acenaphthylene-1,7(2a1H)-dione] | – | – | – | – | – | IC50 ([1]; MTT, 48 h, HCT-116 cells): 31.9 ± 0.69 µM; IC50 ([2]; MTT, 48 h, A375 cells): 40.4 ± 7.58 µM; IC50 ([3]; MTT, 48 h, A549 cells): 34.7 ± 1.94 µM; IC50 ([4]; MTT, 48 h, Huh-7 cells): > 50 µM
16 | Cc1cc(=O)cc2c3c1C1OC4C5OC(=O)C(CC2=O)(C4C)C3C15 [Compound 13, (3R,4aR,10aS,11S)-5,11-dimethyl-2a,3,4a,10a1-tetrahydro-1H-2,4-dioxa-3,10a-methanocyclohepta[bc]cyclopenta[jk]acenaphthylene-1,7,9(2a1H,10H)-trione] | > 50 | > 50 | > 50 | > 50 | – | IC50 [5]: > 50 µM
